Each compound was assayed against T1, FLT3 D835H (Homo sapiens, UniProt P36888, D835H) (assay: DiscoverX KINOMEscan active site-directed competition binding, FLT3 D835H). Settings: Table 12; no ATP.
T1 sequence (P36888 27-993 D835H): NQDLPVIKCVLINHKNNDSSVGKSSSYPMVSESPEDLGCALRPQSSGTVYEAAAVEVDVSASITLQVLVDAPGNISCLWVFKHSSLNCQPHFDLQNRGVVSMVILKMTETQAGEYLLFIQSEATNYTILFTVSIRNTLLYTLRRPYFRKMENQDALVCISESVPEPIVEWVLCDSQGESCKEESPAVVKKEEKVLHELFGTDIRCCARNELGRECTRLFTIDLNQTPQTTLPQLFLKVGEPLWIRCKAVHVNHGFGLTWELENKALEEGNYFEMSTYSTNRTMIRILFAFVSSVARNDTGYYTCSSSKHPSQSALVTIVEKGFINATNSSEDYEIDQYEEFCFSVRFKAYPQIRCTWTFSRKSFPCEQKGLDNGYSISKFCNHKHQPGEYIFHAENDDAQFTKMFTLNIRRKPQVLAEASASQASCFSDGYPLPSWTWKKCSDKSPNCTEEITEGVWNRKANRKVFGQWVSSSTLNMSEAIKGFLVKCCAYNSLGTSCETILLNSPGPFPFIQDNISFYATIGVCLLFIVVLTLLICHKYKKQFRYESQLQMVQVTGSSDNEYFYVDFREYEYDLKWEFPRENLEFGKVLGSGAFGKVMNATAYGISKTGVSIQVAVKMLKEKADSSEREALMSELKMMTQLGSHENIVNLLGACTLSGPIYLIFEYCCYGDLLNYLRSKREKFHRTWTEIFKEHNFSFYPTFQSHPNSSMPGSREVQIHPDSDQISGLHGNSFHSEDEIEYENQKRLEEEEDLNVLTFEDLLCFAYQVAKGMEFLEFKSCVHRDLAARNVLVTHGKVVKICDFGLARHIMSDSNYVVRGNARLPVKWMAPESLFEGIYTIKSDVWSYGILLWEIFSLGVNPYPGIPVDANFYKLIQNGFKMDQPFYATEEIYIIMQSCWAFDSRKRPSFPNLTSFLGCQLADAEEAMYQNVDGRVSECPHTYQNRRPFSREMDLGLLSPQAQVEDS
Source text: (§1) Kinase binding data were obtained for various exemplary compounds prepared according to Examples 1-8 using the DiscoverX KINOMEscan® active site-directed competition binding site-directed assay protocol described below. […] As a result, the data report thermodynamic interaction affinities (Kd values), rather than IC50 values that are dependent on ATP concentrations. The assay uses a DNA-tagged version of the protein kinase, and an immobilized ligand bound to a solid support. Compounds that directly or indirectly prevent kinase binding to the immobilized ligand reduce the amount of kinase captured on the solid support, which is detected using an ultra-sensitive qPCR method. Affinity constants reported from the assay have been reported to be independent of the immobilized ligand used that is coupled to the solid support (See supplemental information in Fabian, M. A. et. al., (2005) Nat. Biotechnol. 23, 329-336; Wodicka, L. M. et. al., (2010) Chem. Biol. 17, 1241-1249.)
Kinase-tagged T7 phage strains were prepared in an E. coli host derived from the BL21 strain. E. coli were grown to log-phase and infected with T7 phage and incubated with shaking at 32 °C until lysis. The lysates were centrifuged and filtered to remove cell debris. The remaining kinases were produced in HEK-293 cells and subsequently tagged with DNA for qPCR detection. Streptavidin-coated magnetic beads were treated with biotinylated small molecule ligands for 30 minutes at room temperature to generate affinity resins for kinase assays. The liganded beads were blocked with excess biotin and washed with blocking buffer (SeaBlock (Pierce), 1% BSA, 0.05% Tween 20, 1 mM DTT) to remove unbound ligand and to reduce non-specific binding. […] Test compounds were prepared as 111x stocks in 100% DMSO. Kds were determined using an 11-point 3-fold compound dilution series with three DMSO control points. All compounds for Kd measurements are distributed by acoustic transfer (non-contact dispensing) in 100% DMSO. The compounds were then diluted directly into the assays such that the final concentration of DMSO was 0.9%. All reactions were performed in polypropylene 384-well plates. Each was a final volume of 0.02 mL. The assay plates were incubated at room temperature with shaking for 1 hour and the affinity beads were washed with wash buffer (1×PBS, 0.05% Tween 20). The beads were then re-suspended in elution buffer (1×PBS, 0.05% Tween 20, 0.5 μM nonbiotinylated affinity ligand) and incubated at room temperature with shaking for 30 minutes. The kinase concentration in the eluates was measured by qPCR. Binding constants (Kds) were calculated with a standard dose-response curve using the Hill equation. The Hill Slope was set to −1. Curves were fitted using a non-linear least square fit with the Levenberg-Marquardt algorithm.
as §1, with “9-12” for “1-8”
Kinase-tagged T7 phage strains were prepared in an E. coli host derived from the BL21 strain. […]

Kd [nM] | Structure (SMILES)
0.18 | COc1cn2ncc(-c3nc(N[C@H]4CNCC[C@@H]4F)c(C#N)cc3F)c2nc1C1CC1 [Compound 7, 6-(5-cyclopropyl-6-methoxypyrazolo[1,5-a]pyrimidin-3-yl)-5-fluoro-2-(((3S,4S)-4-fluoropiperidin-3-yl)amino)nicotinonitrile]
< 0.17 | COc1cn2ncc(-c3nc(N[C@H]4CNCC[C@@H]4F)c(F)cc3F)c2nc1C(C)(C)O [Compound 13, 2-(3-(3,5-difluoro-6-(((3S,4S)-4-fluoropiperidin-3-yl)amino)pyridin-2-yl)-6-methoxypyrazolo[1,5-a]pyrimidin-5-yl)propan-2-ol]
0.2 | COc1cn2ncc(-c3nc(N[C@H]4CNCC[C@@H]4F)c(C#N)cc3F)c2nc1C(C)(C)O [Compound 10, 5-fluoro-2-(((3S,4S)-4-fluoropiperidin-3-yl)amino)-6-(5-(2-hydroxypropan-2-yl)-6-methoxypyrazolo[1,5-a]pyrimidin-3-yl)nicotinonitrile]

Same assay, conditions: Table 18; no ATP

Kd [nM] | Structure (SMILES)
0.54 | COc1cn2ncc(-c3cncc(N[C@H]4CNCC[C@@H]4F)n3)c2nc1C1CC1 [Compound 12a, 6-(5-cyclopropyl-6-methoxypyrazolo[1,5-a]pyrimidin-3-yl)-N-((3S,4S)-4-fluoropiperidin-3-yl)pyrazin-2-amine]
0.25 | COc1cn2ncc(-c3nc(N[C@H]4CNCC[C@@H]4F)ncc3F)c2nc1C(C)(C)O [Compound 6a, 2-(3-(5-fluoro-2-(((3S,4S)-4-fluoropiperidin-3-yl)amino)pyrimidin-4-yl)-6-methoxypyrazolo[1,5-a]pyrimidin-5-yl)propan-2-ol]
1.2 | COc1cn2ncc(-c3ccnc(N[C@H]4CNCC[C@@H]4F)n3)c2nc1C1CC1 [Compound 7a, 4-(5-cyclopropyl-6-methoxypyrazolo[1,5-a]pyrimidin-3-yl)-N-((3S,4S)-4-fluoropiperidin-3-yl)pyrimidin-2-amine]
0.37 | COc1cn2ncc(-c3nc(N[C@H]4CNCC[C@@H]4F)ncc3F)c2nc1C1CC1 [Compound 15a, 4-(5-cyclopropyl-6-methoxypyrazolo[1,5-a]pyrimidin-3-yl)-5-fluoro-N-((3S,4S)-4-fluoropiperidin-3-yl)pyrimidin-2-amine]
0.2 | COc1cn2ncc(-c3nc(N[C@@H]4CCCNC4)ncc3F)c2nc1C1CC1 [Compound 14a, (R)-4-(5-cyclopropyl-6-methoxypyrazolo[1,5-a]pyrimidin-3-yl)-5-fluoro-N-(piperidin-3-yl)pyrimidin-2-amine]
